From patent publication US7008649B2, “Cancer treatment composition and method using natural plant essential oils with signal transduction modulators” (Ecosmart Techonlogies, Inc., priority 1998, dated 2006)

Legend:
Type in all cases: cell-based, human
[1] = tested on: MCF-7 cells; test: Plant essential oil compounds against E2-induced cell growth, viable cell count (trypan blue, haemocytometer); conditions: 10 nM estrogen, 5 days of treatment; for protection against E2-induced abnormal cell growth: 1 ug/ml
Description: Various concentrations of plant essential oil compounds were tested against E2-induced cell growth to determine the lowest concentrations that antagonize the E2-induced cell growth. MCF-7 cells were cultured in growth medium supplemented with 10% fetal bovine serum (FBS). At 85% confluence, cells were sub-cultured in 6 well petri-dishes and supplemented with 5% FBS serum stripped medium, phenol red free for 24 hours prior to the treatment of different concentrations of the test chemicals. After 5 days of treatment cells were trypsinized and collected using an Eppendorf microcentrifuge. The cell pellets were resuspended in 1% trypan blue. Three aliquots (10 ul each) of the viable cell suspension was counted using a haemocytometer assay. Each sample was then counted three times and to obtain an average count. The compounds were tested in the presence of 10 nM estrogen (=2.7 ng estrogen/ml). Two wells per test concentration were used. This experiment was repeated two times. A control sample-received solvent only at <0.1% ethanol.

[2] = tested on: MCF-7 cells; test: Mixed exposure of plant essential oil compounds and forskolin (FK) on E2-induced breast cancer cell growth (FIG. 3); conditions: mixed exposure with forskolin (FK), 10 nM estrogen
Description: (§1) MCF-7 cells were cultured in growth medium supplemented with 10% fetal bovine serum (FBS). At 85% confluence, cells were sub-cultured in 6 well petri-dishes medium supplemented with 5% FBS serum stripped medium, phenol red free for 24 hours prior to the treatment of different concentrations of the test chemicals. Cells were either counted (5 days after treatment) or used to determine cell proliferation (24 hr after treatment) using ^3H-thymidine incorporation. To count the cell, cells were trypsinized, and collected using Eppendorf microcentrifuge. The cell pellets were resuspended in 1% trypan blue and three aliquots (10 ul each) of the viable cell suspension was counted using a haemocytometer assay. Each sample was then counted three times to obtain an average count. For thymidine incoroporation, 24 hr after cell treated with test mixture, cells were incubated with 1 uCi ^3H-thymidine. After 2 hr, the medium was withdrawn and the cells were washed with thymidine-free medium and 10% TCA prior to radioactive count. Plant essential oil compounds were tested in the presence of 10 nM estrogen (=2.7 ng estrogen/ml) using three wells per test concentration. This experiment was repeated two times. A control sample received solvent only at <0.1% ethanol. The data supports the involvement of cellular signaling proteins, particularly cAMP/PKA cascade in the E2-induced cell proliferation in human breast cancer cells as judged by the antiestrogenic activity of FK. However, different methods are required to evaluate antiestrogenic activity.

[3] = tested on: MCF-7 cells; test: Effect of geldanamycin (GM) on antiestrogenic activity of plant essential oil compounds against E2-induced cell growth (FIG. 4); conditions: mixed exposure with geldanamycin (GM), 10 nM estrogen
Description: as §1, with “The data supports the involvement of cellular signaling proteins, particularly cAMP/PKA cascade in the E2-induced cell proliferation in human breast cancer cells as judged by the antiestrogenic activity of FK. However, different methods are required to evaluate antiestrogenic activity.” left out

[4] = tested on: MCF-7 cells; test: Mixed exposure of okadaic acid (OA) and plant essential oil compounds, 3H-thymidine incorporation (FIG. 5); conditions: 10 ug/ml plant essential oil compound + 1 nM okadaic acid, 24 hr, with or without 10 nM E2
Description: MCF-7 cells were cultured in growth medium supplemented with 10% fetal bovine serum (FBS). At 85% confluence, cells were sub-cultured in 6 well petri-dishes medium supplemented with 5% FBS serum stripped medium, phenol red free for 24 hours prior to the treatment of 10 ug/ml of each plant essential oil compound and 1 nM okadiac acid. After 24 hr treatment, cells were used to determine cell proliferation using ^3H-thymidine incorporation. Two hrs after cell incubation with 1 uCi ^3H-thymidine, the medium was withdrawn and the cells were washed with thymidine-free medium and 10% TCA prior to radioactive count. These test chemicals were tested in the presence of 10 nM estrogen (=2.7 ng estrogen/ml). Three wells per test concentration were used. This experiment was repeated two times. A control sample received solvent only at <0.1% ethanol.

SMILES | protection against E2-induced abnormal cell growth [1] [%] | synergism by FK of the antiestrogenic activity of the plant essential oil compound [2] | synergism by GM of the antiestrogenic activity against E2 induced cell growth [3] | synergism by OA of the antiestrogenic activity of the plant essential oil compound [4] | protection against the E2-induced cell proliferation ([1]; 5 ug/ml) [%] | protection against the E2-induced abnormal cell growth ([1]; 10 μg/ml) | protection against the E2-induced abnormal cell growth ([1]; concentration not given)
C=CCc1ccc(O)c(OC)c1 [eugenol] | 35 | synergizes | synergizes | regardless of the absence or presence of E2 | – | – | –
Cc1ccc(C(C)C)c(O)c1 [thymol] | – | not | – | only in the absence of E2 | 40 | – | –
O=C/C=C/c1ccccc1 [Cinnamic aldehyde] | – | synergizes | – | – | – | approximately 75% | –
CC=Cc1ccc(O)c(OC)c1 [isoeugenol] | 25 | not | – | – | – | – | approximately 75%
